Literature values as cited in patent publication US20090239923A1 (priority 2008, published 2009).

Test system: human body
Conditions: ingestion, 70 Kg human body; 90 mL = 70 g

## CO [methanol]
  Lethal dose: 90 mL
